Entries after “also recorded” stand apart in the source; their conditions may differ.
Legend:
Type in all cases: in vivo
[1] = system: blood brain barrier (BBB); assay: BBB leakage in brain of DM/HC pig model (IHC for pig immunoglobulin); conditions: DM/HC pigs
Method: (§1) Animal model: A diabetic/diabetic hypercholestrolemic pig model (DM/HC) was developed that mimics human-like atherosclerosis. Farm pigs weighing 25-30 kg and aged ∼4 months were made diabetic with a single intravenous injection of 125 mg/kg of streptozotocin (Sicor Pharmaceuticals, Irvine, CA). After stabilization for 1-2 weeks, the animals with elevated levels of plasma glucose (>150 mg/dl) were fed with atherogenic (high-fat) diet as shown in Table 1 (Animal Specialties, Quakertown, PA) to achieve a cholesterol level of approximately 250-800 mg/dl. Table 1. Diet for 2.0% cholesterol diet the components are:
(§2) At one month after stabilization of choleresterol at 250-800mg/dl, the animals were randomized into two experimental groups, DM/HC (hyperglycemia and hypercholesterolemia) group with no treatment and treatment group (10 mg/kg/day of SB-480848, also referred to as 1-(N-(2-(diethylamino)ethyl)-N-(4-(4-trifluoromethylphenyl)benzyl)-aminocarbonylmethyl)-2-(4-fluorobenzyl)thio-5,6-trimethylenepyrimidin-4-one). The animals were sacrificed at 6-month after the randomization. The animal protocol has been approved by the Institutional Animal Care and Use Committee of University of Pennsylvania.
(§3) Two diabetic/hypercholesterolemic groups were evaluated: 1. DM/HC group and 2. DM/HC animals receiving Lp-PLA2 inhibitors. The experiments included: the control group (DM/HC group - 17 pigs) and the experimental group (DM/HC animals receiving LP-PLA2 inhibitors - 20 pigs). In addition blood cholesterol levels were maintained between 300 and 800 mg/dl in experimental animals, this range having been determined to provide a better test model. Blood cholesterol levels were monitored in all animals on a bimonthly basis, as shown in Table 4 and adjustments were made to the fat content of the feed accordingly, as shown in Table 2. The cholesterol and lard percent were in the range of 0.5-2% and 10-25%, respectively, and all animals received feed that contained cholesterol and lard concentration within that range. Blood samples were obtained at baseline, 1 month, 3 months, and 6 months. Less than 1 ml/kg of blood were obtained each time. At the bimonthly blood cholesterol levels tests, levels of total cholesterol, LDL, HDL, VLDL and triglycerides, blood glucose, Lp-PLA2 and […] (PBMCs) were tested (see Table 4).
(§4) Daily dosing began on Day 29, at which time each test animal was given a daily dose of 10 mg/kg SB-480848 (given as bolus equivalent in dog food). Animals were NPO from midnight the night before. Animals were euthanized on Day 196 and tissues harvested immediately.
(§5) Brain tissue preparation. The entire brain was removed within one hour after animals were euthanized. The right hemisphere was fixed in 10% formalin for at least one week. […]

[2] = system: glial cells; assay: Glial cell (astrocyte) activation in brain of DM/HC pig model (GFAP IHC); conditions: DM/HC pigs treated with Lp-PLA2 inhibitor, vs non-treated
Method: as §1, with “are: […]” for “are:”
Two diabetic/hypercholesterolemic groups were evaluated: 1. […] In addition blood cholesterol levels were maintained between 300 and 800 mg/dl in experimental animals, this range having been determined to provide a better test model. Blood cholesterol levels were monitored in all animals on a bimonthly basis, as shown in Table 4 and adjustments were made to the fat content of the feed accordingly, as shown in Table 2. […]

[3] = Body weight and behaviour observed during the study in DM/HC pig model; conditions: DM/HC pigs
Method: as §1, §2, §3
Domestic farm pigs, Yorkshire boars, ranging in weight between 25-35 kg were purchased from a local farm and placed in indoor housing under the care of a veterinarian. They were castrated 3-5 days in advance of the study start date. Test pigs were made diabetic by infusing one dose of streptozocin (125 mg/kg) IV in a period of 30 min. […] The blood glucose was measured using a glucometer every day before feeding for the first 14 days and then once a week. […]

[4] = system: Abeta-42; assay: Abeta-42 accumulation in brain of DM/HC pig model (IHC); conditions: DM/HC pigs
Method: as §1, §2, §3, §4, §5

[5] = 10 mg/kg/day SB-480848, n=6, vs DM/HC no treatment, 10 mg/kg/day
[6] = 10 mg/kg/day SB-480848, vs DM/HC no treatment
[7] = during the study period, compared to control non-treated animals

For `CCN(CC)CCN(Cc1ccc(-c2ccc(C(F)(F)F)cc2)cc1)C(=O)Cn1c(SCc2ccc(F)cc2)nc(=O)c2c1CCC2` [Lp-PLA2 inhibitor, 1-(N-(2-(diethylamino)ethyl)-N-(4-(4-trifluoromethylphenyl)benzyl)-aminocarbonylmethyl)-2-(4-fluorobenzyl)thio-5,6-trimethylenepyrimidin-4-one], the BBB leakage [1, 5] was “prevents BBB leakage; also recorded: negligible”, the “Ig binding to neurons” value [1, 6] was “no Ig binding to neurons” and the “Ig leakage from blood vessels” value [1, 6] was “no Ig leakage from blood vessels”. For the same molecule, the dendrite collapse [1, 6] was “no dendrite collapse”, the “activation of glial cells” value [2] was “less activation of glial cells” and the weight ([3]; 10 mg/kg/day SB-480848, end of study, from a baseline of 26.9 kg, control animals 50.9 kg (baseline 30.3 kg)) was 62.5 kg. The “activity in the cage” value [3, 7] was “increased activity in the cage”, the “response to feeding and handling” value [3, 7] was “tended to respond more alertly to feeding and handling” and the “responsiveness to external stimuli” value [3, 7] was “more responsive to external stimuli”. The sick neurons ([4]; 10 mg/kg/day SB-480848, compared with non-treated animals) was “rarely observed”, the “neuronal Abeta-42 immunoreactivity” value [4, 5] was “prevents Abeta-42 accumulation in neurons; also recorded: no neuronal Abeta-42 immunoreactivity” and the “Abeta42 accumulation in vascular SMCs” value [4, 6] was “prevented Abeta42 accumulation in vascular SMCs”. The “cerebrovascular amyloidosis (arterial Abeta-42 immunostaining)” value ([4]; 10 mg/kg/day SB-480848, vs DM/HC no treatment, 10 mg/kg/day) was “little or no arterial Abeta-42 immunostaining; also recorded: minimized cerebrovascular amyloidosis”.
